Experiments:
[1] = molecular target: T1, human bradykinin 1 receptor (B1R) (Homo sapiens, UniProt P46663); test: Functional investigation on the human bradykinin 1 receptor (B1R), Ca2+ FLIPR assay in CHO K1 hB1R cells; assay type: cell-based; conditions: CHO-K1, B1R antagonism human; test substance 10 μM; Ca2+ FLIPR, CHO K1 hB1R cells; read-out: B1R Ant. h [10 μM] % Inhibition
T1 construct: expressed in transfected cells; host or cells: CHO K1 cells
T1 sequence (P46663 1-353): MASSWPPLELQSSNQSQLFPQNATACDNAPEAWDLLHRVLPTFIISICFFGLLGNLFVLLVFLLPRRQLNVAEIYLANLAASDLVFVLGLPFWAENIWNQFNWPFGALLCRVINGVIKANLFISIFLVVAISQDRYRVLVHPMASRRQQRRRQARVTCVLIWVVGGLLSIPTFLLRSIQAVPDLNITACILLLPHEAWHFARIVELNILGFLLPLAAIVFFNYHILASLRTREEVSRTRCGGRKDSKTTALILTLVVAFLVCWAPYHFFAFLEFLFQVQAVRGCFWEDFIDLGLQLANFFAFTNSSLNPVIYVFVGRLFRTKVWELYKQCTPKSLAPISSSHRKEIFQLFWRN
Summary of the method: (§1)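 Peak Ca2+-dependent fluorescence in B1R-transfected CHO K1 cells measures antagonism of an EC80 agonist challenge given 10-20 min after compound. Agonist is Lys-Des-Arg9-bradykinin for human, Des-Arg9-bradykinin for rat receptor.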

[2] = molecular target: T2, bradykinin 1 receptor (B1R) of the rat (Rattus norvegicus, UniProt P97583); test: Functional investigation on the rat bradykinin 1 receptor (B1R), Ca2+ FLIPR assay in CHO K1 rB1R cells; assay type: cell-based; conditions: CHO-K1, B1R antagonism rat; test substance 10 μM; Ca2+ FLIPR, CHO K1 rB1R cells; read-out: B1R Ant. r [10 μM] % Inhibition
T2 construct: expressed in transfected cells; host or cells: CHO K1 cells
T2 sequence (P97583 1-337): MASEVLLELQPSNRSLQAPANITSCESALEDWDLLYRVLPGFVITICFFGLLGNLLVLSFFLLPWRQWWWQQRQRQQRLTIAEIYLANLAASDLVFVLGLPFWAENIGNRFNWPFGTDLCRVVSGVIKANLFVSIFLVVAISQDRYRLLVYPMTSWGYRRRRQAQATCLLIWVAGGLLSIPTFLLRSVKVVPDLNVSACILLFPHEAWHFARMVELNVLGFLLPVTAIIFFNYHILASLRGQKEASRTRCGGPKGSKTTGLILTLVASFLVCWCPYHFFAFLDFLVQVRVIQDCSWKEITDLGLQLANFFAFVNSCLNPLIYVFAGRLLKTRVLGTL
Summary of the method: as §1

human μ opiate receptor = molecular target: T3, human μ opiate receptor (Homo sapiens, UniProt P35372); test: Affinity for the human μ opiate receptor ([3H]-naloxone displacement, CHO-K1 receptor membrane preparation, SPA); assay type: binding; conditions: 1.5 h, Table 3, to be read in the same way as Table 1; test concentration 1 μM; read-out: μ
T3 construct: purchased PerkinElmer Life Sciences, Zaventem, Belgium RB-HOM; host or cells: CHO-K1 cells (membrane preparation)
Summary of the method: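 SPA, CHO-K1 hμ membranes; 1 nmol/l [3H]-naloxone; Tris-HCl 50 mmol/l + 0.06% BSA; 90 min RT; NSB with 100 μmol/l naloxone; β-counting. Readout: % inhibition of specific binding at 1 μM test compound.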

T3 sequence (P35372 whole entry): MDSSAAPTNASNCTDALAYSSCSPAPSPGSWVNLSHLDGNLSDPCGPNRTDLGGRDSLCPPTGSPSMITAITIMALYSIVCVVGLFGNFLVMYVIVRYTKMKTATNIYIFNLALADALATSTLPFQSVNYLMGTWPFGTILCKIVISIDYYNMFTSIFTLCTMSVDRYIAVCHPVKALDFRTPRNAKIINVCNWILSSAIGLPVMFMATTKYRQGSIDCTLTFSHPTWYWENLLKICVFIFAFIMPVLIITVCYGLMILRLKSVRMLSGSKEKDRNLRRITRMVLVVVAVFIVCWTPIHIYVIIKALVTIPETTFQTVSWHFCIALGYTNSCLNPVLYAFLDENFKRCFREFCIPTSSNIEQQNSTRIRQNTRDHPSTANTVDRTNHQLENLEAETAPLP

Compound | inhibition at 10 µM [1] | inhibition at 10 µM [2] | inhibition at 1 µM (human μ opiate receptor)
CN(CCOCC(=O)NC1CCC(C(CCc2ccccc2)N2CCOCC2)CC1)S(=O)(=O)c1ccc(Cl)cc1Cl (stereo not drawn) [Example 660, 2-(2-(2,4-dichloro-N-methylphenylsulfonamido)ethoxy)-N-(4-(1-morpholino-3-phenylpropyl)cyclohexyl)acetamide] | 30% | 12% | 4%
CN(CCOCC(=O)NC1CCC(C(CCc2ccccc2)N2CCCCC2)CC1)S(=O)(=O)c1ccc(Cl)cc1Cl (stereo not drawn) [Example 661, 2-(2-(2,4-dichloro-N-methylphenylsulfonamido)ethoxy)-N-(4-(3-phenyl-1-(piperidin-1-yl)propyl)cyclohexyl)acetamide] | 73% | 25% | 21%
COc1cc(C)c(S(=O)(=O)N(C)CCOCC(=O)NC2CCC(C(CCc3ccccc3)N3CCOCC3)CC2)c(C)c1 (stereo not drawn) [Example 662, 2-(2-(4-methoxy-N,2,6-trimethylphenylsulfonamido)ethoxy)-N-(4-(1-morpholino-3-phenylpropyl)cyclohexyl)acetamide] | 104% | 101% | 3%
COc1cc(C)c(S(=O)(=O)N(C)CCOCC(=O)NC2CCC(C(CCc3ccccc3)N3CCCCC3)CC2)c(C)c1 (stereo not drawn) [Example 663, 2-(2-(4-methoxy-N,2,6-trimethylphenylsulfonamido)ethoxy)-N-(4-(3-phenyl-1-(piperidin-1-yl)propyl)cyclohexyl)acetamide] | 103% | 95% | 26%
CN(CCOCC(=O)NC1CCC(C(CCc2ccccc2)N2CCOCC2)CC1)S(=O)(=O)c1c(Cl)cccc1Cl (stereo not drawn) [Example 664, 2-(2-(2,6-dichloro-N-methylphenylsulfonamido)ethoxy)-N-(4-(1-morpholino-3-phenylpropyl)cyclohexyl)acetamide] | 70% | 11% | 5%
CN(CCOCC(=O)NC1CCC(C(CCc2ccccc2)N2CCCCC2)CC1)S(=O)(=O)c1c(Cl)cccc1Cl (stereo not drawn) [Example 665, 2-(2-(2,6-dichloro-N-methylphenylsulfonamido)ethoxy)-N-(4-(3-phenyl-1-(piperidin-1-yl)propyl)cyclohexyl)acetamide] | 94% | 28% | 18%
O=C(COC1CCN(S(=O)(=O)c2c(Cl)cc(Cl)cc2Cl)C1)NC1CCC(C(CCc2ccccc2)N2CCOCC2)CC1 (stereo not drawn) [Example 666, N-(4-(1-morpholino-3-phenylpropyl)cyclohexyl)-2-(1-(2,4,6-trichlorophenylsulfonyl)pyrrolidin-3-yloxy)acetamide] | 11% | 5% | 6%
O=C(COC1CCN(S(=O)(=O)c2c(Cl)cc(Cl)cc2Cl)C1)NC1CCC(C(CCc2ccccc2)N2CCCCC2)CC1 (stereo not drawn) [Example 667, N-(4-(3-phenyl-1-(piperidin-1-yl)propyl)cyclohexyl)-2-(1-(2,4,6-trichlorophenylsulfonyl)pyrrolidin-3-yloxy)acetamide] | 57% | 17% | 32%
COc1cc(C)c(S(=O)(=O)N2CCC(OCC(=O)NC3CCC(C(CCc4ccccc4)N4CCOCC4)CC3)C2)c(C)c1 (stereo not drawn) [Example 668, 2-(1-(4-methoxy-2,6-dimethylphenylsulfonyl)pyrrolidin-3-yloxy)-N-(4-(1-morpholino-3-phenylpropyl)cyclohexyl)acetamide] | 88% | 64% | 10%
COc1cc(C)c(S(=O)(=O)N2CCC(OCC(=O)NC3CCC(C(CCc4ccccc4)N4CCCCC4)CC3)C2)c(C)c1 (stereo not drawn) [Example 669, 2-(1-(4-methoxy-2,6-dimethylphenylsulfonyl)pyrrolidin-3-yloxy)-N-(4-(3-phenyl-1-(piperidin-1-yl)propyl)cyclohexyl)acetamide] | 103% | 95% | 20%

Source: patent US8106055B2, “Substituted amide compounds” (Gruenenthal GmbH, priority 2007, dated 2012)
